Test results from ChEMBL document CHEMBL5653615 (J Biol Chem, 2013).

Assays:
[1] = biological target: T1, Ephrin type-A receptor 1 (Homo sapiens) (UniProt P21709); test: Inhibition of human EPHA1 at 500 nM by HotSpot assay relative to control
T1 sequence (whole entry): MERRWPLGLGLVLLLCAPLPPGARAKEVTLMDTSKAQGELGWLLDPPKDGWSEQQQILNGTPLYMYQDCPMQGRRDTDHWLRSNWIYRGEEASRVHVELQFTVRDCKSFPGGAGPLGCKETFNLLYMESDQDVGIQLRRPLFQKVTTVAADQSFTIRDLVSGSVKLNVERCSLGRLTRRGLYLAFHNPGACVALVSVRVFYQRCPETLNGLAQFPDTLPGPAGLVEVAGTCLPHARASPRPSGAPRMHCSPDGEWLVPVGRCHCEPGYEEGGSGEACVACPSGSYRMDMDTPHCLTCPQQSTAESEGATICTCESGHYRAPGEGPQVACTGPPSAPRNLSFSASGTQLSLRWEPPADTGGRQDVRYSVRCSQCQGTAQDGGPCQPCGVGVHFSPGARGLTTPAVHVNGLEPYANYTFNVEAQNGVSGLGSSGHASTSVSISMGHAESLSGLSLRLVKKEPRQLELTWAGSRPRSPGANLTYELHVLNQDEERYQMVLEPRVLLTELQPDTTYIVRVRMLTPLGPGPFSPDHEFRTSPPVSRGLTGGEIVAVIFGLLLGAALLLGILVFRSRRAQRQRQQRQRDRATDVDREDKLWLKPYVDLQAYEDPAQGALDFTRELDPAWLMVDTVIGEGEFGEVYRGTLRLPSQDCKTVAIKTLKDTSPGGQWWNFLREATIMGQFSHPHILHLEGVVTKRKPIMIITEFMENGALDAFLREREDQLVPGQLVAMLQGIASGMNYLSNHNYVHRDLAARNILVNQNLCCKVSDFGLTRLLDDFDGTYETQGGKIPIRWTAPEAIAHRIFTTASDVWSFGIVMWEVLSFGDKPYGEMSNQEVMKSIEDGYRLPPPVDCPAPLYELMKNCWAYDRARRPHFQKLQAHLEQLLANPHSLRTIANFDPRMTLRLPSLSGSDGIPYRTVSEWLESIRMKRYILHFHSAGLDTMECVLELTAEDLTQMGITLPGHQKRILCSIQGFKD

[2] = biological target: T2, Serine/threonine-protein kinase Nek9 (Homo sapiens) (UniProt Q8TD19); test: Inhibition of human NEK9 at 500 nM by HotSpot assay relative to control
T2 sequence (whole entry): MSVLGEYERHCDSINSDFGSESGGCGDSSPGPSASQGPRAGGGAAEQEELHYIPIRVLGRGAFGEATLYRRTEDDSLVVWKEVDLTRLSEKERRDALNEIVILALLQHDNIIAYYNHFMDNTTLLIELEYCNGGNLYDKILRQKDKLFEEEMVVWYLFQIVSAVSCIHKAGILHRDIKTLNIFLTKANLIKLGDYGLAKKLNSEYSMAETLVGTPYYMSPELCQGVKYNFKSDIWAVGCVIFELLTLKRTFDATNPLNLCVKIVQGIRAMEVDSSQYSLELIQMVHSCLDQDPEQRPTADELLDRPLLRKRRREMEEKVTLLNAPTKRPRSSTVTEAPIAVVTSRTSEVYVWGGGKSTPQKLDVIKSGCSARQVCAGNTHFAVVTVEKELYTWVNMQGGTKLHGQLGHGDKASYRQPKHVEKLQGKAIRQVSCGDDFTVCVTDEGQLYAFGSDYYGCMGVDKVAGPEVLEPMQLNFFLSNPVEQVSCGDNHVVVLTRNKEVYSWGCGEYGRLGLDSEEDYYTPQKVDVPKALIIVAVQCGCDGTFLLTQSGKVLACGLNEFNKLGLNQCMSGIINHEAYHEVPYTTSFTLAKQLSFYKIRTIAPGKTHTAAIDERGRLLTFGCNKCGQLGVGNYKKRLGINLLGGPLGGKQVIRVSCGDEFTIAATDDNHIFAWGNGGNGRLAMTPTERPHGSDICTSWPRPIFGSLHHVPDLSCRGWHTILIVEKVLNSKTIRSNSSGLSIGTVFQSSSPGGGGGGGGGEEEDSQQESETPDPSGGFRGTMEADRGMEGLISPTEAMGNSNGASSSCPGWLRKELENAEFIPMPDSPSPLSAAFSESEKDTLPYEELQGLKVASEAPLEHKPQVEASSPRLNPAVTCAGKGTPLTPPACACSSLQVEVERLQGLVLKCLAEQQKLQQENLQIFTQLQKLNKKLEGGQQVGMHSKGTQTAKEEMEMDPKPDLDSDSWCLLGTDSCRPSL

[3] = biological target: Serine/threonine-protein kinase PLK3 (Homo sapiens) (UniProt Q9H4B4); test: Inhibition of human PLK3 at 500 nM by HotSpot assay relative to control
[4] = biological target: G protein-coupled receptor kinase 6 (Homo sapiens) (UniProt P43250); test: Inhibition of human GRK6 at 500 nM by HotSpot assay relative to control
[5] = biological target: Fibroblast growth factor receptor 1 (Homo sapiens) (UniProt P11362); test: Inhibition of human FGFR1 at 500 nM by HotSpot assay relative to control
[6] = biological target: Fibroblast growth factor receptor 3 (Homo sapiens) (UniProt P22607); test: Inhibition of human FGFR3 at 500 nM by HotSpot assay relative to control
[7] = biological target: Protein kinase C delta type (Homo sapiens) (UniProt Q05655); test: Inhibition of human PKCd at 500 nM by HotSpot assay relative to control
[8] = biological target: T3, Megakaryocyte-associated tyrosine-protein kinase (Homo sapiens) (UniProt P42679); test: Inhibition of human CTK at 500 nM by HotSpot assay relative to control
T3 sequence (whole entry): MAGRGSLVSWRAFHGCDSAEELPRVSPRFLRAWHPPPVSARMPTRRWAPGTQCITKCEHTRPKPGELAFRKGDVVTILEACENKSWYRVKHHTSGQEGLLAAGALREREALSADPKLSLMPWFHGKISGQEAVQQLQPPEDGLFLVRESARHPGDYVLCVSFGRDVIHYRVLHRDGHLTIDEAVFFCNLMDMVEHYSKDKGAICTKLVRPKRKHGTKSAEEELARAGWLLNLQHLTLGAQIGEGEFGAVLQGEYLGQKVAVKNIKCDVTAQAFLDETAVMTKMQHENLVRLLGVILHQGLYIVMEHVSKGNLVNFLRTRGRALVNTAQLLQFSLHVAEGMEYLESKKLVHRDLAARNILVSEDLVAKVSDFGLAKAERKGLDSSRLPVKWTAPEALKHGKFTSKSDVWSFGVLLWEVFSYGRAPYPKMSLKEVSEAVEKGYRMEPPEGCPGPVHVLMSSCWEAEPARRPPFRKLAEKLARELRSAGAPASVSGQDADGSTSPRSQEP

Sequence of Fibroblast growth factor receptor 1 (Homo sapiens) (P11362 22-822 limits assumed): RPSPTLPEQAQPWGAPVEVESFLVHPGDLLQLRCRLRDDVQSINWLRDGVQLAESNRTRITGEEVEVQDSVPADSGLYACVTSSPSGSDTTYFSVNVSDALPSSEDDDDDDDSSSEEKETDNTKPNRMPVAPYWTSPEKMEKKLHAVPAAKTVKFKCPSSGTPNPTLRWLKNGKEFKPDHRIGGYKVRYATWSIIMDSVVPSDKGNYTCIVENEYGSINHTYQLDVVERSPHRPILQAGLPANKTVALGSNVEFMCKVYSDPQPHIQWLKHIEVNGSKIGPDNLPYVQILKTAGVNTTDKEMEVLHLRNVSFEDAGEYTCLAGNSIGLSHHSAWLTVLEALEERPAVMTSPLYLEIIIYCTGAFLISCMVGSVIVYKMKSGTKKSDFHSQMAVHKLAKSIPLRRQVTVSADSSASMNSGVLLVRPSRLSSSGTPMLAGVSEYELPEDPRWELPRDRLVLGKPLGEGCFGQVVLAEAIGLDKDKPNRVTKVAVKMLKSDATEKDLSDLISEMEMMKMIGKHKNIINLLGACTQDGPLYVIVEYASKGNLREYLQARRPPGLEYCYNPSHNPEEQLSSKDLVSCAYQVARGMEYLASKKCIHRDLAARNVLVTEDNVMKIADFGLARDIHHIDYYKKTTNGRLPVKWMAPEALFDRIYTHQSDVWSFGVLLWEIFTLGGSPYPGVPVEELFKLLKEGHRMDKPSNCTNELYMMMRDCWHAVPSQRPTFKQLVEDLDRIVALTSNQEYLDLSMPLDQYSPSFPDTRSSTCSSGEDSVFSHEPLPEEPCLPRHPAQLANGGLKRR
Sequence of Protein kinase C delta type (Homo sapiens) (Q05655 whole entry, looked up): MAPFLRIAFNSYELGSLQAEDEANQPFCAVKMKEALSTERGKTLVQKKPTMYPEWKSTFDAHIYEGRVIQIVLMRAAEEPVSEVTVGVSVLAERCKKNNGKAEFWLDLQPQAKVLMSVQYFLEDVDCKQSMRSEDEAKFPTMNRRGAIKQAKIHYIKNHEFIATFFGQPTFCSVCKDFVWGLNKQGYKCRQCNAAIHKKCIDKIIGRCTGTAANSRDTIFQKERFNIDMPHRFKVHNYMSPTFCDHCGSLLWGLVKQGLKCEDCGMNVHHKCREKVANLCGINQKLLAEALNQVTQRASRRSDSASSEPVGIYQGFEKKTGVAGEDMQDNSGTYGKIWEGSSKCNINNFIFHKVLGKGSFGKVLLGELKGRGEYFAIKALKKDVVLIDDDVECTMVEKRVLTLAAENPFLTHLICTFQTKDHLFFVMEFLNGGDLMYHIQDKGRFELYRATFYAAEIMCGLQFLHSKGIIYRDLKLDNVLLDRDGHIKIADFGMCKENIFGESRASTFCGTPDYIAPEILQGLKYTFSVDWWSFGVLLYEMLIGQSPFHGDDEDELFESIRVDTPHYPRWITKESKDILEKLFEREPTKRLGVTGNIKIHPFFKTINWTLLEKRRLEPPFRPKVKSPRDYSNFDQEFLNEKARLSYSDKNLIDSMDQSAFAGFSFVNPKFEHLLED
Sequence of G protein-coupled receptor kinase 6 (Homo sapiens) (P43250 whole entry, looked up): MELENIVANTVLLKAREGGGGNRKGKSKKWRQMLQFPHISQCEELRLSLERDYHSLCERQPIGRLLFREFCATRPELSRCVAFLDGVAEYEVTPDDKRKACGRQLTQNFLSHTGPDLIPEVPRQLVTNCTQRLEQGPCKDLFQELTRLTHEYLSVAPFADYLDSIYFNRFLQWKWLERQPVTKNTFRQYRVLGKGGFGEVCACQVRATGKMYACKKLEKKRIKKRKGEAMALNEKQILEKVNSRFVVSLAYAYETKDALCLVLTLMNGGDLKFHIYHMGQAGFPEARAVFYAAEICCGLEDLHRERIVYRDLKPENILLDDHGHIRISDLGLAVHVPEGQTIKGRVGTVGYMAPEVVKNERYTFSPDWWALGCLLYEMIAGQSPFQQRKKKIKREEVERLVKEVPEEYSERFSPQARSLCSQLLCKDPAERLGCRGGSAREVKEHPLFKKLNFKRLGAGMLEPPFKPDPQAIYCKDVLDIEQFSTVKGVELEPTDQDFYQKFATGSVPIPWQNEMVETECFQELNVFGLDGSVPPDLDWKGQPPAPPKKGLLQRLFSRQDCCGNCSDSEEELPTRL
Sequence of Serine/threonine-protein kinase PLK3 (Homo sapiens) (Q9H4B4 whole entry, looked up): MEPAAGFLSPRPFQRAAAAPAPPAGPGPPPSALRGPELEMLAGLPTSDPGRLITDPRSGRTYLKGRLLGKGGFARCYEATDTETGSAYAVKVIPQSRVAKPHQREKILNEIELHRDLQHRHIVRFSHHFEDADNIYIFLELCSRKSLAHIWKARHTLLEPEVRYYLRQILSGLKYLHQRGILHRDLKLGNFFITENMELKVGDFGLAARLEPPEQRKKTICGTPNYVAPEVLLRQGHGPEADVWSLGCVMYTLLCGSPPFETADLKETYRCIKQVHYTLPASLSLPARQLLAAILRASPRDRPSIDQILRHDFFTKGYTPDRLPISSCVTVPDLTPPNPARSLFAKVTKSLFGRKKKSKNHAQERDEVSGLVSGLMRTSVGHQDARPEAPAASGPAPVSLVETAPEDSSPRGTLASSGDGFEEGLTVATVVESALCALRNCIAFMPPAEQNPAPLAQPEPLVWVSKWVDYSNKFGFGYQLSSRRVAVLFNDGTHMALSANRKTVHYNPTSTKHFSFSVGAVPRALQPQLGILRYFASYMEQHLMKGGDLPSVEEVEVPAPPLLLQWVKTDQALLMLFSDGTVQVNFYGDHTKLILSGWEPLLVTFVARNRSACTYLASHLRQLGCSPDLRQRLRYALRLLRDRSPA
Sequence of Fibroblast growth factor receptor 3 (Homo sapiens) (P22607 23-806 limits assumed): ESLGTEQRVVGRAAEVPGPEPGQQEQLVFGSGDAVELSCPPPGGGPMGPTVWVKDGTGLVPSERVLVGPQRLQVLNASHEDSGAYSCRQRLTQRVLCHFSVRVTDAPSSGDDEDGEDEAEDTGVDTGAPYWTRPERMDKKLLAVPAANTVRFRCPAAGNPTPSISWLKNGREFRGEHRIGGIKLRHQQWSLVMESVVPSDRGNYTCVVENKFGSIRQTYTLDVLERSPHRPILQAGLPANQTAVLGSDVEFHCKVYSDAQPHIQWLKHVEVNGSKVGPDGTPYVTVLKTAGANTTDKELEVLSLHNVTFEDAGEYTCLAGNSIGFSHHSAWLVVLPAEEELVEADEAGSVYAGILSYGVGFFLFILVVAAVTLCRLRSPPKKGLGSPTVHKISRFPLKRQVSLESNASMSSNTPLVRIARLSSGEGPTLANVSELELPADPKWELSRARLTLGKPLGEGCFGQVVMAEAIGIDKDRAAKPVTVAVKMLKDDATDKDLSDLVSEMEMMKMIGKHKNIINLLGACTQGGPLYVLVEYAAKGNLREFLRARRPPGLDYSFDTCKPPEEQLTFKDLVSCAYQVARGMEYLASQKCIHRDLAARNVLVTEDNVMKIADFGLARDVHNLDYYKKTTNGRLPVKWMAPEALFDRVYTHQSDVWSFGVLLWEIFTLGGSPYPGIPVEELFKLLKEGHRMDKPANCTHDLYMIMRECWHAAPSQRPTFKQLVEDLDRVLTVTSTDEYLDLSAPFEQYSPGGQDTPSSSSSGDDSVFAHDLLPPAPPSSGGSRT

| SMILES | inhibition [1] [%] | inhibition [2] [%] | inhibition [3] [%] | inhibition [4] [%] | inhibition [5] [%] | inhibition [6] [%] | inhibition [7] [%] | inhibition [8] [%] |
| --- | --- | --- | --- | --- | --- | --- | --- | --- |
| Oc1n[nH]c2nnc(-c3c(-c4ccccc4)nn4ccccc34)cc12 | 4.34 | 10.2 | 1.17 | 1.01 | -1.96 | -3.4 | 2.29 | 1.78 |
| Nc1n[nH]c2nnc(-c3c(-c4ccccc4)nn4ccccc34)cc12 | 7.41 | 6.65 | -0.08 | 0.69 | 5.28 | -1.72 | 68.8 | 4.4 |
